Laboratory results: patent US9593149B2, “Amylin and calcitonin receptor agonist” (Novo Nordisk A/S, priority 2014, dated 2017)
Peptide text beside a SMILES is read from it. * marks the point of attachment. C18 diacid = O=C(O)CCCCCCCCCCCCCCCCC(=O)*

Legend:
[1] = molecular target: T1, human amylin 3(a) receptor (human calcitonin receptor + RAMP-3), BHK570 cells (Homo sapiens, UniProt O60896+P30988); assay: Assay (II)b functional CRE-luciferase assay without albumin, human amylin receptor; assay type: cell-based; conditions: Tested without HSA; read-out: hAmylin-R funct. EC50
T1 construct: host or cells: BHK570
T1 sequence (O60896 24-148, one chain of several): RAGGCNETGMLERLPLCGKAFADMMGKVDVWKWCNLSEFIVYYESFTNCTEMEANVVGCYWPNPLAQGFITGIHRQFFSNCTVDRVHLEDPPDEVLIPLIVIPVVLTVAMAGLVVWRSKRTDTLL
From the text: (§1) Assay(II)b—Human Calcitonin and Amylin Receptor Assay without Albumin
(§2) 1. Luciferase Assay Outline
(§3) Activation of calcitonin and amylin (co-expression of calcitonin receptor and receptor activity modifying proteins (RAMP)) receptors lead to increased intracellular concentrations of cAMP. Consequently, transcription is activated by promoters containing multiple copies of the cAMP response element (CRE). It is thus possible to measure amylin activity by the use of a CRE luciferase reporter gene introduced into BHK cells also expressing calcitonin or amylin receptors.
(§4) 2. Construction of Calcitonin (a)—and Amylin 3(a)—Receptor/CRE-Luc Cell Line.
(§5) A BHK570 cell line was stably transfected with the human calcitonin receptor and a CRE-responsive luciferase reporter gene (Hollex-1 cell line, obtained from ZymoGenetics described in U.S. Pat. No. 5,622,839). The cell line was further transfected with RAMP-3, using standard methods. This turns the calcitonin receptor into an amylin 3(a) receptor. Methotrexate, Neomycin, and Hygromycin are selection markers for luciferase, the calcitonin receptor, and RAMP-3, respectively. To prepare the batches of frozen cells used in the luciferase assay described in the section below, the cells were cultured in growth medium (DMEM with 10% FBS, 1% Pen/Strep and 1 mM Napyruvate). […] Cells at approximately 80-90% confluence were washed with PBS and loosened from the plates with Versene. After centrifugation (2 min, 1300 rpm, in a Centrion Scientific centriuge C2 series with a BRK 5510 rotor head), the cell pellet was dissolved in 10% DMSO, 30% FBS and 60% growth medium and frozen (−80° C.) until utilization.
(§6) The day before the experiment, BHK calcitonin (a) receptor- or amylin 3(a)-receptor/CRE-luc cells were thawed, washed twice, and seeded in 40 μl growth medium on white 384 well culture plates (4.000 cells/well). On the assay day, the cells were washed 3 times in assay media (Dulbecco media W/o phenol red, 500 ml (Gibco, 11880-028); 0.1% ovalbumin; 10 mM Hepes pH 7.4; 1× Glutamin; 1% Pen/Strep). Then, 30 μl/well of sample diluted in assay buffer was added. After 3 hours of incubation at 37° C. and 5% CO2, the reaction was terminated by adding 30 μl/well SteadyLite Plus™. The plates were shaken at 300 rpm for 5 min at RT. Then, the plates were sealed and incubated at room temperature for 30 minutes. Finally, luminescence was tested on a TopCounter (Packard) in SPC (single photon counting) mode.
(§7) Additional Comment Regarding Use of Data Retrieved Via this Method
(§8) For the same reasons, measurements made in Assay IIa should not be compared in Assay IIb.

[2] = Assay (IV) determination of solubility; assay type: physicochemical
Method: Assay (IV)—Determination of Solubility
The mimylin peptide was dissolved in water at ˜500 nmol/ml and mixed 1:1 with a series of buffers (100 mM glycylglycine pH 3.0, 100 mM glycylglycine pH 4.0, 100 mM glycylglycine pH 5.0, 100 mM bistrispropane pH 6.0, 100 mM bistrispropane pH 6.5, 100 mM bistrispropane pH 7.0, 100 mM bistrispropane pH 7.5, 100 mM bistrispropane pH 8.0).

[3] = molecular target: T2, human calcitonin (a) receptor, BHK570 cells (Homo sapiens, UniProt P30988); assay: Assay (II)b functional CRE-luciferase assay without albumin, human calcitonin receptor; assay type: cell-based; conditions: Tested without HSA; read-out: hCTR funct. EC50
T2 construct: host or cells: BHK570
T2 sequence (P30988 25-474): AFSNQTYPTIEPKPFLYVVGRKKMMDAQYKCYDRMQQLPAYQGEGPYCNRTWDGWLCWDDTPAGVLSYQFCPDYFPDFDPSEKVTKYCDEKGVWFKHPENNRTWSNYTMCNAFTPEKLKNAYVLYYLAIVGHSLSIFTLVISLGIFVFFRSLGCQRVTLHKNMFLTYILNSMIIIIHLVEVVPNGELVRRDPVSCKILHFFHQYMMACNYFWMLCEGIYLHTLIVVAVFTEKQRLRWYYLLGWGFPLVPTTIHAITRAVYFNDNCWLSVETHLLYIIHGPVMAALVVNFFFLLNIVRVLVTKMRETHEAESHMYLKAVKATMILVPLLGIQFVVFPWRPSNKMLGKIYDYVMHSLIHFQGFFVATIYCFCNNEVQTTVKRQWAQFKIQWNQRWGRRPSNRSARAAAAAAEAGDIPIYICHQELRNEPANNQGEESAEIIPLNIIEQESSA
From the text: as §1, §2, §3, §4, §5, §6, §7, §8

[4] = molecular target: T3, human amylin receptor (human calcitonin receptor + human RAMP3), BHK tk'ts 13 cells (Homo sapiens, UniProt O60896+P30988); assay: Assay (Va) binding to the human amylin receptor (whole cell); conditions: read-out: hAmylin-R binding IC50
T3 construct: expressed in transfected cells; host or cells: BHK tk'ts 13
T3 sequence (O60896 24-148, one chain of several): as the sequence (O60896 24-148, one chain of several) above
Method: The day before the assay the cells were Seeded into Poly-D-Lysin coated 384W Opaque White, BD BioCoat plates (10000 cells/well) and Incubated overnight at 37° C., 5% CO2, 95% humidity.

[5] = Assay (XV) subcutaneous PK in LYD-pigs, co-formulated or co-dosed with liraglutide; assay type: in vivo; conditions: administered as co-formulations to LYD pigs
Method: The studies were performed in female LYD pigs of SPF origin delivered from Lars Jonson, Hillerødvej 70, Lynge.
Before the animals arrived, the animal rooms and pens were cleaned and disinfected with Virkon S. During the study, the animal rooms were cleaned and washed regularly.
The pigs were group housed during the acclimatisation period. The pigs were fitted with a central venous catheter while under anaesthesia and after the single housed after catheterization in pens ≧3.1 m^2 with straw as bedding. The temperature in the rooms was set at 20−23° C. and the relative humidity to 30-70%. The rooms were illuminated to give a cycle of 12 hours light and 12 hours darkness. Light was on from 07.00 to 19.00 h.
The formulations was prepared similarly and filled in cartridges in all cases.
The animals were dosed subcutaneously as follows.
The s.c. dosing was performed in 4 mm depth, in a site of injection which was secured on beforehand by ultrasound to avoid muscular tissue or heavy vascularization. Dosing was made using NovoPen®4 and needle Novofine 28 G and a needle stopper to ensure 4 mm depth of injection. The needle was kept in the subcutis for 10 seconds after the injection to secure deposition of compound. […] The co-formulation was administered as one injection. Study was performed as a cross over study with adequate wash out between dosings.
Blood was sampled at predefined time points for up till 15 days post dosing to adequately cover the full plasma concentration-time profile of the mimylin derivative. Blood samples were drawn from a central venous catheter to jugularis made through the catheter which was afterwards flushed with 10 ml 0.9% NaCl.
For each blood sampling time point approximately 0.8 mL of whole blood was collected in a 1.5 mL EDTA coated tube, and the tube was gently turned to allowing mixing of the sample with the anticoagulant. Blood samples (for example 0.8 mL) were collected in EDTA buffer (8 mM) and then centrifuged at 4° C. and 2000 G for 10 minutes. Plasma was pipetted into Micronic tubes on dry ice, and kept at −20° C. until analysis.
Individual plasma concentration-time profiles were analysed by a non-compartmental model in Phoenix WinNonlin version 6.3 (Pharsight Inc., Mountain View, Calif., USA).
The area under the plasma concentration versus time curve (AUC, [time×concentration]) was calculated (by the Pharsight programme) after subcutaneous administration, typically until 240-288 hours post dosing, or until last measured concentration. The AUC was calculated and given as AUCinf-pred and dose normalized.
Results of co-formulation studies in LYD-pigs are summarized below

Row | Structure (SMILES) | EC50 [1] | solubility at 18 h ([2]; bistrispropane buffer, pH 6.5) | solubility at 18 h ([2]; bistrispropane buffer, pH 7.5) | solubility at 18 h ([2]; bistrispropane buffer, pH 6.0) | solubility at 18 h ([2]; bistrispropane buffer, pH 7.0) | solubility at 18 h ([2]; bistrispropane buffer, pH 8.0) | solubility at 18 h ([2]; glycylglycine buffer, pH 3.0) | solubility at 18 h ([2]; glycylglycine buffer, pH 4.0) | solubility at 18 h ([2]; glycylglycine buffer, pH 5.0) | EC50 [3] | IC50 [4] | effect on PK profile of the co-formulated peptide [5]
1 | CC[C@H](C)[C@H](NC(=O)[C@@H](NC(=O)[C@H](C)NC(=O)[C@@H](NC(=O)[C@H](CO)NC(=O)[C@H](CC(C)C)NC(=O)[C@H](CCC(=O)O)NC(=O)[C@H](CO)NC(=O)[C@H](C)NC(=O)[C@H](CCC(=O)O)NC(=O)CCCCCCCCCCCCCCCCC(=O)O)[C@@H](C)O)C(C)C)C(=O)NCC(=O)N[C@@H](CCCNC(=N)N)C(=O)N[C@@H](CC(C)C)C(=O)N[C@@H](CO)C(=O)N[C@@H](C)C(=O)N[C@@H](CCC(=O)O)C(=O)N[C@@H](CC(C)C)C(=O)N[C@@H](Cc1c[nH]cn1)C(=O)N[C@@H](CCC(=O)O)C(=O)N[C@@H](CC(C)C)C(=O)N[C@@H](C)C(=O)N[C@H](C(=O)N[C@@H](CC(C)C)C(=O)N1CCC[C@H]1C(=O)N[C@@H](CCCNC(=N)N)C(=O)N[C@H](C(=O)N[C@@H](CCC(=O)O)C(=O)N[C@H](C(=O)NCC(=O)N1CCC[C@H]1C(=O)N[C@@H](CCC(=O)O)C(=O)N[C@@H](CO)C(=O)N1CCC[C@H]1C(N)=O)[C@@H](C)O)[C@@H](C)O)[C@@H](C)O [compound 26, [N-terminal(C18 diacid), 9V, 10I]mimylin] ({C18 diacid}-EASELSTAVIGRLSAELHELATLPRTETGPESP-NH2) | 0.007 nM | ≥ 200 µM | ≥ 200 µM | ≥ 200 µM | ≥ 200 µM | ≥ 200 µM | ≥ 200 µM | ≥ 200 µM | ≥ 200 µM | 0.006 nM | 0.891 nM | –
2 | CCCCCCCCCCCCCCCC(=O)N[C@@H](CCC(=O)NCCCC[C@H](NC(=O)[C@H](C)NC(=O)[C@H](C)NC(=O)[C@H](CCC(N)=O)NC(=O)CNC(=O)[C@H](CCC(=O)O)NC(=O)[C@H](CC(C)C)NC(=O)[C@H](Cc1ccc(O)cc1)NC(=O)[C@H](CO)NC(=O)[C@H](CO)NC(=O)[C@@H](NC(=O)[C@H](CC(=O)O)NC(=O)[C@H](CO)NC(=O)[C@@H](NC(=O)[C@H](Cc1ccccc1)NC(=O)[C@@H](NC(=O)CNC(=O)[C@H](CCC(=O)O)NC(=O)[C@H](C)NC(=O)[C@@H](N)Cc1cnc[nH]1)[C@@H](C)O)[C@@H](C)O)C(C)C)C(=O)N[C@@H](CCC(=O)O)C(=O)N[C@@H](Cc1ccccc1)C(=O)N[C@H](C(=O)N[C@@H](C)C(=O)N[C@@H](Cc1c[nH]c2ccccc12)C(=O)N[C@@H](CC(C)C)C(=O)N[C@H](C(=O)N[C@@H](CCCNC(=N)N)C(=O)NCC(=O)N[C@@H](CCCNC(=N)N)C(=O)NCC(=O)O)C(C)C)[C@@H](C)CC)C(=O)O [Liraglutide, N^ε26-[(4S)-4-carboxy-4-(hexadecanoylamino)butanoyl]-[Arg^34]-GLP-1-(7-37)-peptide, reference compound] | – | – | – | – | – | – | – | – | – | – | – | not affect the PK profile of Ex. compound 2 or 46
3 | CC(C)C[C@H](NC(=O)[C@H](C)NC(=O)[C@H](C)NC(=O)[C@@H](NC(=O)[C@H](CO)NC(=O)[C@H](CC(C)C)NC(=O)[C@H](CCC(=O)O)NC(=O)[C@H](CO)NC(=O)[C@H](C)N)[C@@H](C)O)C(=O)NCC(=O)N[C@@H](Cc1c[nH]cn1)C(=O)N[C@@H](CC(C)C)C(=O)N[C@@H](CO)C(=O)N[C@@H](C)C(=O)N[C@@H](CCC(=O)O)C(=O)N[C@@H](CC(C)C)C(=O)N[C@@H](Cc1c[nH]cn1)C(=O)N[C@@H](CCC(=O)O)C(=O)N[C@@H](CC(C)C)C(=O)N[C@@H](C)C(=O)N[C@H](C(=O)N[C@@H](CC(C)C)C(=O)N1CCC[C@H]1C(=O)N[C@@H](CCCNC(=N)N)C(=O)N[C@H](C(=O)N[C@@H](CCC(=O)O)C(=O)N[C@H](C(=O)NCC(=O)N[C@@H](CO)C(=O)NCC(=O)N[C@@H](CO)C(=O)N1CCC[C@H]1C(N)=O)[C@@H](C)O)[C@@H](C)O)[C@@H](C)O [72bb, H—ASELSTAALGHLSAELHELATLPRTETGSGSP—NH2] (H-ASELSTAALGHLSAELHELATLPRTETGSGSP-NH2) | 0.014 nM | – | – | – | – | – | – | – | – | 0.003 nM | 5.1 nM | –
